The assay has as its target T1, human oxytocin receptor (Homo sapiens, UniProt P30559).
T1 construct: host or cells: CHO cells, stably transfected (pcDNA3.1 vector); membranes
T1 sequence (P30559 1-389): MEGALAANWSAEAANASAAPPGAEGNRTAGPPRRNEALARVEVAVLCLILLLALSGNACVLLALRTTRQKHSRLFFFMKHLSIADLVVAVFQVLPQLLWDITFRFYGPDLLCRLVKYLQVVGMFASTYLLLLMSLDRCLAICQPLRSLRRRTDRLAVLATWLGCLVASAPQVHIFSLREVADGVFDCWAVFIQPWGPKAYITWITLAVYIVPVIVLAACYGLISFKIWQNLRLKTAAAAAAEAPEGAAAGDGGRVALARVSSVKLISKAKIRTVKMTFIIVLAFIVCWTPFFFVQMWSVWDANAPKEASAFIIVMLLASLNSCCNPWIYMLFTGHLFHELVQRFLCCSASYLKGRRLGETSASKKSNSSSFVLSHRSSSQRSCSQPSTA
The assay is described as follows: Oxytocin binding in CHO cell membranes expressing human oxytocin receptors ([3H]oxytocin radioligand). Conditions: for inhibition at 0.1 µM / OT % inhibition @ 100 nM: 100 nM, value without parentheses; for inhibition at 0.1 µM: read-out: OT % inhibition @ 100 nM. An excerpt:
Oxytocin binding in Chinese Hamster Ovary cell membranes expressing human oxytocin receptors
Chinese Hamster Ovary (CHO) cells stably transfected with the human oxytocin (cf. T. Kimura et al., U.S. Pat. No. 5,466,584 (1995) to Rohto Pharmaceutical Co. Ltd., Osaka, Japan) were obtained from Dr. M. Thibonnier, Case Western Reserve University School of Medicine, Cleveland, Ohio.
A. Passaging and Amplification of Cells:
CHO cells transfected with the human oxytocin receptors obtained from M. Thibonnier (pcDNA3.1 vector) are allowed to grow to confluency (approx. >90%) in T-150 flasks under sterile conditions, in a cell culture medium of F-12 Nutrient Mixture (HAM) with L-glutamine (Gibco Cat. #11765-054) containing 15 mM HEPES (Gibco Cat. #15630-080), 1% antibiotic/antimycotic (add 5 mL 100×, Gibco Cat. #15240-062 per 500 mL F-12), 400 μg/mL of Geneticin (add 4 mL of 50 mg/mL per 500 mL F-12) and 10% Fetal Bovine Serum (Qualified, heat inactivated, Gibco Cat. #16140-063). The medium is removed by aspiration and the cells are washed with 10 mL of Hank's Balanced Salt solution (Gibco Cat. #14175-095). The salt solution is removed by aspiration and the cells trypsinized with 5 mL of trypsin-EDTA (0.05% trypsin, 0.53 mM EDTA-4Na, Gibco Cat. #25300-070) for 1 min The trypsin is removed by aspiration and the cells dislodged by tapping. Cell Culture medium (e.g. 30 mL for 1:30 split) is immediately added and mixed well to inactivate trypsin. 1 mL of detached cells is added to new culture flasks containing fresh Cell Culture medium (e.g. into 25 mL per T-150 flask), and mixed gently. The cells are incubated at 37° C. in 5% CO2. The medium is changed at 3 to 4 days interval (or as appropriate). The cells grow to confluency (approx. >75%-95%) within 7-8 days. All steps are done under sterile conditions.
The cells are washed twice gently with Hank's Balanced Salt solution (eg, use 10 mL per T-150 flask). The excess is removed and the cells bathed for 15-30 min. in an enzyme-free Cell Dissociation Buffer (eg, use 8 mL Hank's Based, Gibco Cat. #13150-016 per T-150 flask) until cells are loosened. The contents are transferred to centrifuge tubes (50 mL size) kept in ice bath. All subsequent steps are done at 4° C. The tubes are centrifuged at 300×g for 15 min (1380 rpm on SORVAL, Model RT6000D, using rotor for 50 mL tubes). The supernatant is discarded and the cells suspended in homogenizing buffer (10 mM Tris-HCl containing 0.25 M sucrose and 1 mM EDTA, pH 7.4) ensuring that the volume of the buffer is about ten times the volume of the cell pellet. The cells are pooled into a centrifuge tube (50 mL) and homogenized with Polytron at setting 6 for 10 sec. The homogenate is transferred into a Potter-Elvjehm homogenizer and homogenized with 3 strokes. The homogenate is centrifuged at 1500×g for 10 min at 4° C. (3100 rpm using SORVAL, model RT6000D, using rotor for 50 mL tubes). The pellet is discarded. The supernatant is centrifuged at 100,000×g for 60 min. at 4° C. (Beckman L8-80M ultracentrifuge; spin at 37,500 rpm with rotor type 70 Ti for 50 mL tubes; 38,000 rpm with type 80Ti for 15 mL tubes; or 35,800 rpm with rotor type 45Ti). The supernantant is discarded and the pellet suspended in 3 to 4 mL of Tris buffer (50 mM TRIS-HCl, pH 7.4). The protein content is estimated by the Bradford or Lowry method. The volume of the membrane suspension is adjusted with the membrane buffer (50 mM Tris-HCl containing 0.1% BSA and 0.1 mM PMSF) to give 3.0 mg/mL (or as appropriate) of protein. The membranes are aliquoted and stored at −70° C.
C. Radioligand Binding Assay:
In wells of a 96-well format microtiter plate, is added 90, 110 or 130 μL (to make up a final volume of 200 μL) of assay buffer containing 50 mM of Tris-HCl (pH 7.4), […], 1 mg % aprotinin, 1 mg % leupeptin, 2 mg % 1,10-phenanthroline, 10 mg % trypsin inhibitor, and 0.1 mM PMSF. The inhibitors are added on the day of the experiment. […]

Molecules are shown by their SMILES.

The term inhibition denotes the relative decrease from the control value, in per cent. For the molecule `Cc1cc(C(=O)N2Cc3ccc(C(=O)N[C@H](CO)C(=O)O)n3Cc3ccccc32)ccc1C1=CCCCC1` [Example 14, (2R)-2-{[10-(4-Cyclohex-1-en-1-yl-3-methyl-benzoyl)-10,11-dihydro-5H-pyrrolo[2,1-c][1,4]benzodiazepine-3-carbonyl]-amino}-3-hydroxy-propionic acid], the inhibition at 0.1 µM was 50%.

In the case of `Cc1cc(C(=O)N2Cc3ccc(C(=O)O)n3Cc3ccccc32)ccc1C1=CCCc2ccccc21` [Example 15B, 10-[4-(3,4-Dihydro-naphthalen-1-yl)-3-methyl-benzoyl]-10,11-dihydro-5H-pyrrolo[2,1-c][1,4]benzodiazepine-3-carboxylic acid], the inhibition at 0.1 µM amounted to 19%.

The IC50 is the concentration needed to halve the response being measured. For the molecule `Cc1cc(C(=O)N2Cc3ccc(C(=O)N(C)C[C@H](O)[C@@H](O)[C@H](O)[C@H](O)CO)n3Cc3ccccc32)ccc1C1=CCCc2ccccc21` [Example 15], the IC50 (value in parentheses, read-out: OT (IC50)) was found to be 3.19 nM.

For `Cc1cc(C(=O)N2Cc3ccc(C(=O)N(CCO)CCO)n3Cc3ccccc32)ccc1C1=CCCc2ccccc21` [Example 16, {10-[4-(3,4-Dihydro-naphthalen-1-yl)-3-methyl-benzoyl]-10,11-dihydro-5H-pyrrolo[2,1-c][1,4]benzodiazepin-3-yl}-3-carboxylic acid bis-(2-hydroxy-ethyl)-amide], the “OT % inhibition @ 100 nM” value turned out to be 98%.

Turning to `Cc1cc(C(=O)N2Cc3ccc(C(=O)N4CCN(CCO)CC4)n3Cc3ccccc32)ccc1C1=CCCCC1` [Example 17, {10-[4-(1-Cyclohex-1-en-1-yl)-3-methylbenzoyl]-10,11-dihydro-5H-pyrrolo[2,1-c][1,4]benzodiazepin-3-yl}[4-(2-hydroxyethyl)-1-piperazinyl]methanone], the “OT % inhibition @ 100 nM” value amounted to 88%.

Source of the values: patent publication US6977254B2, “Hydroxy cyclohexenyl phenyl carboxamides tocolytic oxytocin receptor antagonists” (Wyeth, priority 2001, dated 2005).
